Data: patent EP0025288A1, “Derivatives of monic acid, processes for their preparation, compositions containing them and their preparation” (priority 1979, dated 1981)

Columns and labels:
M. suipneumoniae HK(2) = assay: MIC, anti-mycoplasmal, Friis broth solidified with 0.9% agarose; format: cell-based; details: inoculum 10^3 to 10^5 C.F.U., 6 days incubation at 37°C
[1] = tested on: M. suipneumoniae ATCC 25095; assay: as above; format: cell-based; details: inoculum 10^3 to 10^5 C.F.U., 6 days incubation at 37°C
[2] = tested on: Corynebacterium pyogenes CY1; assay: MIC, veterinary bacteria; format: cell-based; details: veterinary bacteria (Table 2)
M. hyorhinis ATCC 23234 = assay: MIC, anti-mycoplasmal, Friis broth solidified with 0.9% agarose; format: cell-based; details: inoculum 10^3 to 10^5 C.F.U., 6 days incubation at 37°C
[3] = tested on: Corynebacterium zerosis 9755; assay: MIC, human bacteria, serial dilution in nutrient agar; format: cell-based; details: nutrient agar containing 5% 'chocolated' horse blood
E coli NCTC 10418 [4] = assay: as above; format: cell-based; details: nutrient agar containing 5% 'chocolated' horse blood
[5] = tested on: M. suipneumoniae NCTC 10110; assay: MIC, anti-mycoplasmal, Friis broth solidified with 0.9% agarose; format: cell-based; details: inoculum 10^3 to 10^5 C.F.U., 6 days incubation at 37°C
Staph aureus Russell = assay: MIC, human bacteria, serial dilution in nutrient agar; format: cell-based; details: nutrient agar containing 5% 'chocolated' horse blood
Strep pyogenes C 2761 = assay: as above; format: cell-based; details: nutrient agar containing 5% 'chocolated' horse blood
E coli E1 = assay: MIC, veterinary bacteria; format: cell-based; details: veterinary bacteria (Table 2)
[6] = tested on: Neisseria catarrhalis 1502; assay: MIC, human bacteria, serial dilution in nutrient agar; format: cell-based; details: Neisseria catarrhalis 1502 (footnote a); nutrient agar containing 5% 'chocolated' horse blood
K aerogenes A = assay: as above; format: cell-based; details: nutrient agar containing 5% 'chocolated' horse blood
[7] = tested on: Strep suis (group D) SPS11; assay: MIC, veterinary bacteria; format: cell-based; details: veterinary bacteria (Table 2)
M. suipneumoniae NB12 = assay: MIC, anti-mycoplasmal, Friis broth solidified with 0.9% agarose; format: cell-based; details: inoculum 10^3 to 10^5 C.F.U., 6 days incubation at 37°C
[8] = tested on: M. suipneumoniae J2206/183b; assay: as above; format: cell-based; details: inoculum 10^3 to 10^5 C.F.U., 6 days incubation at 37°C
M. suipneumoniae TAM 6N = assay: as above; format: cell-based; details: inoculum 10^3 to 10^5 C.F.U., 6 days incubation at 37°C
Strep uberis SPU1 = assay: MIC, veterinary bacteria; format: cell-based; details: veterinary bacteria (Table 2)
Strep pyogenes B 2788 = assay: MIC, human bacteria, serial dilution in nutrient agar; format: cell-based; details: nutrient agar containing 5% 'chocolated' horse blood
Strep pyogenes A 64/848 = assay: as above; format: cell-based; details: nutrient agar containing 5% 'chocolated' horse blood
Staph aureus W2827 = assay: as above; format: cell-based; details: nutrient agar containing 5% 'chocolated' horse blood
Past multocida PA1 = assay: MIC, veterinary bacteria; format: cell-based; details: veterinary bacteria (Table 2)
Staph aureus Oxford [9] = assay: MIC, human bacteria, serial dilution in nutrient agar; format: cell-based; details: nutrient agar containing 5% 'chocolated' horse blood
M. suipneumoniae LABER = assay: MIC, anti-mycoplasmal, Friis broth solidified with 0.9% agarose; format: cell-based; details: inoculum 10^3 to 10^5 C.F.U., 6 days incubation at 37°C
M. gallisepticum S6 = assay: as above; format: cell-based; details: inoculum 10^3 to 10^5 C.F.U., 6 days incubation at 37°C
[10] = tested on: Haemophilus influenzae Wy21; assay: MIC, human bacteria, serial dilution in nutrient agar; format: cell-based; details: nutrient agar containing 5% 'chocolated' horse blood
Strep faecalis I = assay: as above; format: cell-based; details: nutrient agar containing 5% 'chocolated' horse blood
Past Haemolytica PA5 = assay: MIC, veterinary bacteria; format: cell-based; details: veterinary bacteria (Table 2)
M. bovis NCTC 10131 = assay: microbe, parasite or virus in culture; format: cell-based; details: M. bovis NCTC 10131; inoculum 10^3 to 10^5 C.F.U., 6 days incubation at 37°C
Bacillus subtilis 6633 = assay: MIC, human bacteria, serial dilution in nutrient agar; format: cell-based; details: nutrient agar containing 5% 'chocolated' horse blood
M. suipneumoniae Str. 11 = assay: MIC, anti-mycoplasmal, Friis broth solidified with 0.9% agarose; format: cell-based; details: inoculum 10^3 to 10^5 C.F.U., 6 days incubation at 37°C
[11] = tested on: M. bovigenitalium ATCC 14173; assay: as above; format: cell-based; details: inoculum 10^3 to 10^5 C.F.U., 6 days incubation at 37°C
P mirabilis 889 = assay: MIC, human bacteria, serial dilution in nutrient agar; format: cell-based; details: nutrient agar containing 5% 'chocolated' horse blood
[12] = tested on: Staph aureus B4 (pen resis); assay: MIC, veterinary bacteria; format: cell-based; details: veterinary bacteria (Table 2)
Bord bronchisptica BO9 = assay: MIC, veterinary bacteria; format: cell-based; details: veterinary bacteria (Table 2)
[13] = tested on: Staph aureus 152 (pen sens); assay: MIC, veterinary bacteria; format: cell-based; details: veterinary bacteria (Table 2)
M. suipneumoniae JF 435 = assay: MIC, anti-mycoplasmal, Friis broth solidified with 0.9% agarose; format: cell-based; details: inoculum 10^3 to 10^5 C.F.U., 6 days incubation at 37°C
[14] = tested on: Pasteurella multocida 1633; assay: MIC, human bacteria, serial dilution in nutrient agar; format: cell-based; details: nutrient agar containing 5% 'chocolated' horse blood
Strep dysgalaciae SPD1 = assay: MIC, veterinary bacteria; format: cell-based; details: veterinary bacteria (Table 2)
Ps aeruginosa 10662 = assay: MIC, human bacteria, serial dilution in nutrient agar; format: cell-based; details: nutrient agar containing 5% 'chocolated' horse blood
S dublin S7 = assay: MIC, veterinary bacteria; format: cell-based; details: veterinary bacteria (Table 2)
[15] = tested on: M. suipneumoniae PW/C/210; assay: MIC, anti-mycoplasmal, Friis broth solidified with 0.9% agarose; format: cell-based; details: inoculum 10^3 to 10^5 C.F.U., 6 days incubation at 37°C
Strep agalactiae SPA1 = assay: MIC, veterinary bacteria; format: cell-based; details: veterinary bacteria (Table 2)
Staph aureus Oxford [16] = assay: MIC, veterinary bacteria; format: cell-based; details: veterinary bacteria (Table 2)
M. pneumoniae ATCC 15492 = assay: MIC, anti-mycoplasmal, Friis broth solidified with 0.9% agarose; format: cell-based; details: inoculum 10^3 to 10^5 C.F.U., 6 days incubation at 37°C
Past multocida PA2 = assay: MIC, veterinary bacteria; format: cell-based; details: veterinary bacteria (Table 2)
S typhimurium S18 = assay: MIC, veterinary bacteria; format: cell-based; details: veterinary bacteria (Table 2)
[17] = tested on: M. hyosynoviae ATCC 25591; assay: MIC, anti-mycoplasmal, Friis broth solidified with 0.9% agarose; format: cell-based; details: inoculum 10^3 to 10^5 C.F.U., 6 days incubation at 37°C
[18] = tested on: Erysipelothrix rhusiopathiae NCTC 8163; assay: MIC, veterinary bacteria; format: cell-based; details: veterinary bacteria (Table 2)
M. hyorhinis ATCC 25021 = assay: MIC, anti-mycoplasmal, Friis broth solidified with 0.9% agarose; format: cell-based; details: inoculum 10^3 to 10^5 C.F.U., 6 days incubation at 37°C
M. suipneumoniae MS 16 = assay: as above; format: cell-based; details: inoculum 10^3 to 10^5 C.F.U., 6 days incubation at 37°C
Bord bronchiseptica BO8 = assay: MIC, veterinary bacteria; format: cell-based; details: veterinary bacteria (Table 2)
M. suipneumoniae UCD 1 = assay: MIC, anti-mycoplasmal, Friis broth solidified with 0.9% agarose; format: cell-based; details: inoculum 10^3 to 10^5 C.F.U., 6 days incubation at 37°C
E coli NCTC 10418 [19] = assay: MIC, veterinary bacteria; format: cell-based; details: veterinary bacteria (Table 2)
E coli ESS = assay: MIC, human bacteria, serial dilution in nutrient agar; format: cell-based; details: nutrient agar containing 5% 'chocolated' horse blood
pig serum = assay: Serum binding by ultrafiltration; format: in vitro ADME; details: compounds at 8 mcg/ml, microbiological assay (B. subtilis ATCC 6633)
Method: Serum binding was assessed by ultrafiltration of procine serum containing compounds at 8 mcg/ml, and through an Amicon CF50A ultrafiltration cone. Separation of ultrafiltrate was achieved by centrifugation.

Sercina lutea 8340 = assay: MIC, human bacteria, serial dilution in nutrient agar; format: cell-based; details: nutrient agar containing 5% 'chocolated' horse blood
M. dispar NCTC 10125 = assay: MIC, anti-mycoplasmal, Friis broth solidified with 0.9% agarose; format: cell-based; details: inoculum 10^3 to 10^5 C.F.U., 6 days incubation at 37°C

In the case of “C^yclopentan-2-onyl monate A [Example 6]”, the “in vitro MIC” value (M. suipneumoniae HK(2)) is reported as 10 mg/L, the “in vitro MIC” value [1] is reported as 5.0 mg/L and the MIC [2] is reported as greater than 80 mg/L. For the same substance, the “in vitro MIC” value (M. hyorhinis ATCC 23234) was 2.5 mg/L, the MIC [3] was greater than 100 µm/ml and the MIC (E coli NCTC 10418 [4]) was greater than 100 µm/ml. The “in vitro MIC” value [5] was 10 mg/L, the MIC (Staph aureus Russell) was 5.0 µm/ml and the MIC (Strep pyogenes C 2761) was 5.0 µm/ml. The MIC (E coli E1) was greater than 80 mg/L, the MIC [6] was “^a1.0 µm/ml” and the MIC (K aerogenes A) was greater than 100 µm/ml. The MIC [7] was 20 mg/L, the “in vitro MIC” value (M. suipneumoniae NB12) was 2.5 mg/L and the “in vitro MIC” value [8] was 10 mg/L. The “in vitro MIC” value (M. suipneumoniae TAM 6N) was 5.0 mg/L, the MIC (Strep uberis SPU1) was 1.25 mg/L and the MIC (Strep pyogenes B 2788) was 5.0 µm/ml. For the same substance, the MIC (Strep pyogenes A 64/848) was 2.5 µm/ml, the MIC (Staph aureus W2827) was 5.0 µm/ml and the MIC (Past multocida PA1) was “.625 mg/L”. The MIC (Staph aureus Oxford [9]) was 2.5 µm/ml, the “in vitro MIC” value (M. suipneumoniae LABER) was 2.5 mg/L and the “in vitro MIC” value (M. gallisepticum S6) was greater than 10 mg/L. For the same substance, the MIC [10] was 0.5 µm/ml, the MIC (Strep faecalis I) was greater than 100 µm/ml and the MIC (Past Haemolytica PA5) was 5 mg/L. For the same substance, the “in vitro MIC” value (M. bovis NCTC 10131) was 0.25 mg/L, the MIC (Bacillus subtilis 6633) was 2.5 µm/ml and the “in vitro MIC” value (M. suipneumoniae Str. 11) was 2.5 mg/L. For the same substance, the “in vitro MIC” value [11] was 0.25 mg/L, the MIC (P mirabilis 889) was 100 µm/ml and the MIC [12] was 2.5 mg/L. For the same substance, the MIC (Bord bronchisptica BO9) was 20 mg/L, the MIC [13] was 2.5 mg/L and the “in vitro MIC” value (M. suipneumoniae JF 435) was 10 mg/L. It also gave an MIC [14] of 1.0 µm/ml, an MIC (Strep dysgalaciae SPD1) of 1.25 mg/L and an MIC (Ps aeruginosa 10662) greater than 100 µm/ml. The MIC (S dublin S7) was greater than 80 mg/L, the “in vitro MIC” value [15] was 2.5 mg/L and the MIC (Strep agalactiae SPA1) was 2.5 mg/L. For the same substance, the MIC (Staph aureus Oxford [16]) was 2.5 mg/L, the “in vitro MIC” value (M. pneumoniae ATCC 15492) was 10 mg/L and the MIC (Past multocida PA2) was “.312 mg/L”. For the same substance, the MIC (S typhimurium S18) was greater than 80 mg/L, the “in vitro MIC” value [17] was 2.5 mg/L and the MIC [18] was greater than 80 mg/L. For the same substance, the “in vitro MIC” value (M. hyorhinis ATCC 25021) was 2.5 mg/L, the “in vitro MIC” value (M. suipneumoniae MS 16) was 2.5 mg/L and the MIC (Bord bronchiseptica BO8) was 80 mg/L. The “in vitro MIC” value (M. suipneumoniae UCD 1) was 10 mg/L, the MIC (E coli NCTC 10418 [19]) was greater than 80 mg/L and the MIC (E coli ESS) was 2.5 µm/ml. For the same substance, the “% bound to pig serum” value (pig serum) was 35.6%, the MIC (Sercina lutea 8340) was greater than 100 µm/ml and the “in vitro MIC” value (M. dispar NCTC 10125) was 0.5 mg/L.
